{"source": "paper PMC7346179", "about": "“Fe Porphyrin-Based SOD Mimic and Redox-Active Compound, (OH)FeTnHex-2-PyP^4+, in a Rodent Ischemic Stroke (MCAO) Model: Efficacy and Pharmacokinetics as Compared to Its Mn Analogue, (H2O)MnTnHex-2-PyP^5+” (Antioxidants, 2020)", "key": {"mice [1]": {"system": "mice", "details": "mouse, in vivo, cited from earlier work"}, "[2]": {"experiment": "7-day PK study in healthy rats", "type": "in vivo", "method": "Samples were prepared as described in [10] with modifications to accommodate the small tissue sizes and enhance the detection sensitivity. Quantitative liquid chromatography electrospray-ionization tandem mass spectrometry (LCMS/MS) analysis was performed on a Shimadzu 20A series HPLC (LC)-Applied Biosystems/MDS Sciex API 3200 QTrap or API 4000 QTrap tandem-mass spectrometer (MS/MS) as described earlier. The use of heptafluorobutyric acid (HFBA) mobile phase modifier as an ion-pairing agent increases the overall lipophilicity and volatility, which increases the retention and ionization efficiency of the analytes, affording an abundance of HFBA-associated ions. […] (OH)FeTnBuOE-2-PyP^4+ was prepared as described for other Fe(III) N-alkylpyridylporphyrins and analogous (H2O)MnTnBuOE-2-PyP^5+ [13, 16]. The solvents employed were: A = 95:5 H2O:MeCN (0.1% HFBA); B = MeCN (0.1% HFBA). […] With the chosen solvent system, all four atropoisomers collapsed into a single peak, enhancing the sensitivity of the method to as low as 0.5 nM (nanomoles per L of tissue homogenate). Analyses were performed using a Phenomenex Luna C18 guard cartridge (ID × L, 2 × 4 mm) only. […] Their structures are also shown. […] The response was calculated as the ratio between the standard peak area and the internal standard peak area. We conducted a 7-day rat PK study under conditions identical to those that afforded the therapeutic efficacy of MnTnHex-2-PyP^5+ in an earlier study. […] Afterwards, blood/plasma samples were collected before injection and at 2 h after 24 h-injections (every second injection). Liver and brains were taken for analysis 12 h after the last injection. Three rats were used per compound. After the single (first) SC injection, we obtained a prototypical PK profile observed in the case of all Mn(III) ortho […] In contrast, although similarly absorbed after SC injection, the […] Our understanding is that the “elimination” process is actually a fast distribution/retention into/by the liver, kidney, and spleen, a multi-compartmental process responsible for early decay of the plasma concentration, observed for all Mn porphyrin analogs investigated."}, "rat MCAO stroke model": {"system": "rat MCAO stroke model", "experiment": "7-day rat MCAO efficacy study", "type": "in vivo, rats", "details": "0.225 mg/kg twice per day 7 days", "method": "The 7-day rat MCAO study was done as described in [9]. The 250–275 g Wistar rats were used as another species is a requirement for preclinical stroke research. The duration of the right MCAO was 90 min. […] The first dose was given IV slowly via the […] at 5 min after ischemia/reperfusion. The following doses were given SC. At day 7 post-injury, a person blinded to the treatment groups assessed the neurological deficit and then brains were harvested for infarct volume measurements."}, "mice [3]": {"system": "mice", "details": "cited from earlier work"}, "SOD-deficient E. coli": {"system": "SOD-deficient E. coli", "details": "higher than MnHex; cited from earlier work"}, "[4]": {"details": "cited from earlier work"}, "mouse MCAO stroke model": {"system": "mouse MCAO stroke model", "experiment": "3-day mouse MCAO efficacy study", "type": "in vivo, mice", "method": "We performed a mouse MCAO study to define a dose of FeHex for a larger rat MCAO study. The 81 C57Bl/6J mice (8–10 weeks old) were subjected to 90 min of MCAO right hemisphere occlusion. Mice were fasted overnight before injury. They were under isoflurane anesthesia during ischemia, and the pericranial temperature was automatically controlled at 37 °C using a surface heating and cooling system. Ischemia was made through a small window on the left temporal bone, and the main trunk of the middle cerebral artery was transiently tied with a fine silk suture for 90 min. Muscle and skin layers were closed after ischemia/reperfusion. Mice were allowed to awake and survive for 3 days. […] Mice were sacrificed under deep anesthesia at 3 days post-ischemia/reperfusion. The brain was quickly frozen in −20 °C 2-methybutane and stored in the freezer for histological analysis. Liver and brain were taken for LCMS/MS analysis of the levels of FeHex. Body weight, rotarod performance, and Corner test were assessed before and 3 days after injury. Neurological deficit (neuroscore) and infarct volume were evaluated at 3 days after injury.\nThe rotarod test was performed on the day before surgery and 3 days after ischemia/reperfusion. Three trials were performed with a 15-min intra-trial rest. Mice were placed on the rod and then the machine was started. The speed was accelerated from 4 turns/min to 40 turns per min. The latency to fall from the rod was automatically recorded. The data are presented in % and are calculated as [(reading after injury)/(reading before surgery-baseline reading)] × 100. Neurological deficit was assessed based on the neuroscore system we previously used that includes the general status and motor and sensory functions. For the corner test, two clean boards were placed in “V” fashion at an angle of 30° relative to the walking axes and mice were left to walk in towards the apex of the “V”. Mice usually make left turns more frequently when injury is severe enough. The left turn was calculated from the number of left (L) turn/total turns (L + Right turn). Normal animals would have as many left as right turns (50% = normal). When all turns are to the left, the value at y-axis is 100%, the most severe score. Body weight loss is expressed as a difference in body weight at 3 days post-stroke minus body weight on the surgery day."}, "[5]": {"details": "healthy rats, SC 0.225 mg/kg BID 7 days, 12 h after last injection"}, "[6]": {"details": "healthy rats, SC 0.225 mg/kg BID 7 days, WinNonlin simulation"}, "[7]": {"details": "0.225 mg/kg IV twice daily 3 days"}}, "note": "Several values for one entry are separate records, joined by “and”; a condition that tells them apart may be missing. Equal entries are not always repeated."}
{"substance": "monohydroxo Fe(III) meso-tetrakis(N-n-hexylpyridinium-2yl)porphyrin [FeHex]", "values": [{"measurement": "blood pressure drop", "setting": "mice [1]; ip, 10 mg/kg", "result": "does not"}, {"measurement": "arterial hypotension in experimental animals", "setting": "mice [1]", "result": "does not cause arterial hypotension"}, {"measurement": "plasma exposure (AUC) relative to MnHex", "setting": "[2]; 7-day twice-daily treatment of rats", "result": "more than 2 fold"}, {"measurement": "brain concentration at end of 7-day treatment", "setting": "[2]; [5]", "result": 24, "unit": "nM"}, {"measurement": "end-of-treatment 7-day liver tissue level", "setting": "[2]; [5]", "result": 0.04, "unit": "µM"}, {"measurement": "average plasma concentration (Caver)", "setting": "[2]; [6]", "result": 160, "unit": "nM"}, {"measurement": "plasma AUC", "setting": "[2]; [6]", "result": 26.9, "unit": "µM·h"}, {"measurement": "Cmax", "setting": "[2]; healthy rats, SC 0.225 mg/kg BID 7 days, WinNonlin simulation, read-out: Cmax at steady state, plasma", "result": 210, "unit": "nM"}, {"measurement": "elimination from plasma after single (first) SC injection", "setting": "[2]; healthy rats, SC 0.225 mg/kg, first 12 h", "result": "much slower elimination from the plasma"}, {"measurement": "plasma half-life", "setting": "[2]; healthy rats, SC 0.225 mg/kg, estimated from simulation, 0.225 mg/kg", "result": "23 h and ~ 23 h"}, {"measurement": "p, cortex infarct volume vs vehicle", "setting": "rat MCAO stroke model", "result": 0.48}, {"measurement": "p, neuroscore vs vehicle", "setting": "rat MCAO stroke model", "result": 0.28}, {"measurement": "p, subcortex infarct volume vs vehicle", "setting": "rat MCAO stroke model", "result": 0.11}, {"measurement": "p, total infarct volume vs vehicle", "setting": "rat MCAO stroke model", "result": 0.31}, {"measurement": "neurological deficit (neuroscore and infarct volume)", "setting": "rat MCAO stroke model; first dose IV, then SC", "result": "only slightly, but insignificantly, improved"}, {"measurement": "toxicity to mice relative to MnHex", "setting": "mice [3]", "result": "less toxic to mice"}, {"measurement": "toxicity / death of mice", "setting": "mice [3]; mice, 5 mg/kg IP injection", "result": "no toxicity"}, {"measurement": "efficacy in SOD-deficient E. coli model relative to MnHex", "setting": "SOD-deficient E. coli", "result": "~ 2 orders of magnitude"}, {"measurement": "log kcat(O2^•−), log of rate constant for catalysis of O2^•− dismutation", "setting": "[4]", "result": 7.53}, {"measurement": "neuroscore", "setting": "mouse MCAO stroke model; [7]", "result": "improved"}, {"measurement": "p, Corner test vs vehicle", "setting": "mouse MCAO stroke model; [7]", "result": 0.09}, {"measurement": "p, body weight change vs vehicle", "setting": "mouse MCAO stroke model; [7]", "result": 0.0347}, {"measurement": "p, infarct volume vs vehicle", "setting": "mouse MCAO stroke model; [7]", "result": 0.48}, {"measurement": "p, neuroscore vs vehicle", "setting": "mouse MCAO stroke model; [7]", "result": 0.047}, {"measurement": "p, rotarod vs vehicle", "setting": "mouse MCAO stroke model; [7]", "result": 0.59}, {"measurement": "body weights", "setting": "mouse MCAO stroke model; 0.225 mg/kg IV twice daily 3 days, from 90 min post ischemia/reperfusion", "result": "improved"}, {"measurement": "infarct volume relative to vehicle", "setting": "mouse MCAO stroke model; 0.05, 0.225 and 1 mg/kg IV twice daily 3 days", "result": "No significant change"}]}
